Active and inactive are the calls of the source. No cut-off for these calls is given here. Bounds are passed on as bounds.

A short description of one experiment: cells. The following applies: Mus musculus, Ba/F3 EGFR-L858R, 72 h.
Experiment [1] concerns BaF3. In words: cells. The following applies: Mus musculus, BaF3, 72 h.
Experiment [2] deals with Epidermal growth factor receptor (Homo sapiens) (UniProt P00533). In words: Binding affinity to N-terminal protease cleavable His-GST tagged wild type human EGFR (696 to 1022 residues) expressed as baculovirus infected Sf9 cells assessed as mass shift at 10 fold molar excess incubated for 2 hrs by LC-MS/MS analysis.
Experiment [3] has as its system Epidermal growth factor receptor (Homo sapiens), P00533 [L858R,T790M]. As to the kind of experiment: Binding affinity to Cys797 residue of trypsin digested EGFR L858R/T790M mutant (unknown origin) by Nano-LC-MS/MS analysis.
Experiment [4] deals with T1, Tyrosine-protein kinase BTK (Homo sapiens, UniProt Q06187). As to the kind of experiment: Binding affinity to human BTK harboring cysteine at alphaD-1 position at 10 uM by Kinomescan analysis.
Experiment [5] deals with T2, Tyrosine-protein kinase JAK3 (Homo sapiens) (UniProt P52333).
T2 sequence (whole entry): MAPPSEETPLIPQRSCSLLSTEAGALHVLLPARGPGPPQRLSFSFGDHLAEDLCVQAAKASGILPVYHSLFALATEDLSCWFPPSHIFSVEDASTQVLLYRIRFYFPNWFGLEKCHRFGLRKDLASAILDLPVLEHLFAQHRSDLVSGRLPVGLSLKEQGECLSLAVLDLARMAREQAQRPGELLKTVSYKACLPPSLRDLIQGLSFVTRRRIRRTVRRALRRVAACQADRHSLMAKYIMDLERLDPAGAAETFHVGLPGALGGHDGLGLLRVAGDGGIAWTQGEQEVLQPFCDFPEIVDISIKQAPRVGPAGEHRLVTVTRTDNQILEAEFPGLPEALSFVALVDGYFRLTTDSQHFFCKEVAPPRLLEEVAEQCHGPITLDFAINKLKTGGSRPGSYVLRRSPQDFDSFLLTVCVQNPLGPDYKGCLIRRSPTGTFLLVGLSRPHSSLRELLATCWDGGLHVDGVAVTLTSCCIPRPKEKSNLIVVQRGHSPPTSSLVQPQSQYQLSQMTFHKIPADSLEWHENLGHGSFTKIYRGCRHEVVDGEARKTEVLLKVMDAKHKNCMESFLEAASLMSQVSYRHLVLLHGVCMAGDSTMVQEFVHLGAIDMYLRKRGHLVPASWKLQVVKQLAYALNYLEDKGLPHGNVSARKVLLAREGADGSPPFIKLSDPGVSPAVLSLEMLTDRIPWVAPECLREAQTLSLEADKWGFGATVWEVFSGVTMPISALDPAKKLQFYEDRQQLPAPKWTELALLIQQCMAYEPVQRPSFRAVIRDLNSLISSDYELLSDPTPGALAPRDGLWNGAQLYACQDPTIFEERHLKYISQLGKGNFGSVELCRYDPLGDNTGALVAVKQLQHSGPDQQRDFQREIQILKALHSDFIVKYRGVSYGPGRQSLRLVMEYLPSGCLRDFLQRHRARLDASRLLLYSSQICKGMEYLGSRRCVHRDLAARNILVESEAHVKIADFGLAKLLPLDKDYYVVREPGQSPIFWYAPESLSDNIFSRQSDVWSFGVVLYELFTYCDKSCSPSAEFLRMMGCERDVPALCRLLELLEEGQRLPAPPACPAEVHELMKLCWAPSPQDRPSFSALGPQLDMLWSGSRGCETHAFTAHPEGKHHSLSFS
In words: Binding affinity to human JAK3 JH1 domain harboring cysteine at alphaD-1 position at 10 uM by Kinomescan analysis.

For experiment [6], the target named is Epidermal growth factor receptor (Homo sapiens) (UniProt P00533). As to the kind of experiment: Binding affinity to human EGFR harboring cysteine at alphaD-1 position at 10 uM by Kinomescan analysis.
Experiment [7] concerns the target T3, Dual specificity mitogen-activated protein kinase kinase 7 (Homo sapiens) (UniProt O14733).
T3 sequence (whole entry): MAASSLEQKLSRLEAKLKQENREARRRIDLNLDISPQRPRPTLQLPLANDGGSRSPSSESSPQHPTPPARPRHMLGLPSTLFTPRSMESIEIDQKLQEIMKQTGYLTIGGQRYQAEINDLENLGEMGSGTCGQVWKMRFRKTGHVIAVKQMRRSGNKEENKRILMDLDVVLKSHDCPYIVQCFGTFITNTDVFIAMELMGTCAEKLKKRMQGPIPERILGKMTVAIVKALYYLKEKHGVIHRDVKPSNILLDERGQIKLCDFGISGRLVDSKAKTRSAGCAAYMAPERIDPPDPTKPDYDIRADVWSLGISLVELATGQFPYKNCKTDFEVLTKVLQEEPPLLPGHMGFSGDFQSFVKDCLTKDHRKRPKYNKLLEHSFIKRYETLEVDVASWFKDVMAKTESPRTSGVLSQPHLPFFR
As to the kind of experiment: Binding affinity to human MKK7 harboring cysteine at alphaD-1 position at 10 uM by Kinomescan analysis.

For experiment [8], the target named is Epidermal growth factor receptor (Homo sapiens, UniProt P00533, L858R). In words: Inhibition of EGFR L858R mutant (unknown origin) harboring cysteine at alphaD-1 position by LanthaScreen assay. In general terms: In TR-FRET formats the signal depends on donor and acceptor labels being close together.
The target of experiment [9] is T4, Tyrosine-protein kinase JAK3 (Homo sapiens, UniProt P52333).
T4 sequence (P52333 whole entry): T2 sequence (whole entry)
In words: Inhibition of JAK3 (unknown origin) harboring cysteine at alphaD-1 position by LanthaScreen assay.

The target in experiment [10] is T1, Tyrosine-protein kinase BTK. In words: Inhibition of BTK (unknown origin) harboring cysteine at alphaD-1 position by LanthaScreen assay.
Experiment [11] has as its target T5, Dual specificity mitogen-activated protein kinase kinase 5 (Homo sapiens, UniProt Q13163).
T5 sequence (Q13163 whole entry): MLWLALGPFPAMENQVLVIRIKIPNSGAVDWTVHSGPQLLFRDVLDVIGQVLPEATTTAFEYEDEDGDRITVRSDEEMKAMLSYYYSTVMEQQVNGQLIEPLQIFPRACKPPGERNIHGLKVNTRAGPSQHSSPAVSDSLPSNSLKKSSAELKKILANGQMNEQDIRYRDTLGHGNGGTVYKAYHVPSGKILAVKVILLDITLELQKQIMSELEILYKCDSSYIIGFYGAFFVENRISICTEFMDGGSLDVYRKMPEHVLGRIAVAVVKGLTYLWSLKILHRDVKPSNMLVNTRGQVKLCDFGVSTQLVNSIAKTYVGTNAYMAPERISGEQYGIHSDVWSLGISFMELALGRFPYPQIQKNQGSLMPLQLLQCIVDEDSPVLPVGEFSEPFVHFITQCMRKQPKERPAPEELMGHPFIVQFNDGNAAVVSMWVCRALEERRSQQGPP
As to the kind of experiment: Inhibition of MEK5 (unknown origin) by LanthaScreen assay.

Experiment [12] concerns the target T1, Tyrosine-protein kinase BTK. In words: Binding affinity to BTK (unknown origin) assessed as covalent bond formation by measuring cysteine 481-labeling by mass spectrometry analysis relative to control.
Experiment [13] deals with T2, Tyrosine-protein kinase JAK3 (Homo sapiens). In words: Binding affinity to JAK3 JH1 domain (unknown origin) assessed as covalent bond formation by measuring cysteine 909-labeling by mass spectrometry analysis relative to control.
Experiment [14] concerns the target T1, Tyrosine-protein kinase BTK. In words: Displacement of K-10 tracer from wild type BTK in HEK293T cells expressing NanoLuc preincubated for 3 hrs followed by tracer addition and measured after 1 hr by NanoBRET analysis. The format is cell-based. Background: Bioluminescence resonance energy transfer reports proximity on the nanometre scale.
Experiment [15] deals with Tyrosine-protein kinase BTK (Homo sapiens), Q06187 [C481S]. As to the kind of experiment: Displacement of K-10 tracer from BTK C481S mutant in HEK293T cells expressing NanoLuc preincubated for 3 hrs followed by tracer addition and measured after 1 hr by NanoBRET analysis. The format is cell-based. The following applies: time 4.0 hrs.
Another experiment concerns HEK293T. In words: Displacement of K-4 tracer from BLK C319S mutant in HEK293T cells expressing NanoLuc preincubated for 3 hrs followed by tracer addition and measured after 1 hr by NanoBRET analysis. Conditions: Homo sapiens, time 4.0 hrs. Type of experiment: cell-based.
The subject of experiment [16] is BaF3. As to the kind of experiment: Inhibition of biotinylated osimertinib binding to EGFR L858R mutant in mouse BaF3 cells preincubated for 3 hrs followed by biotinylated osimertinib addition and incubated overnight by competitive pulldown based Western blot analysis. Type of experiment: cell-based. Conditions: dose 0.2-10 µM. A general note: In western blotting, separated proteins are transferred to a membrane and probed.

Experiment [17] deals with T1, Tyrosine-protein kinase BTK. As to the kind of experiment: Inhibition of biotinylated ibrutinib binding to BTK in human MINO cells at 0.2 to 10 uM preincubated for 3.5 hrs followed by biotinylated ibrutinib addition and incubated overnight by competitive pulldown based Western blot analysis. The format is cell-based. Conditions: dose 0.2-10 µM.
The target in experiment [18] is Epidermal growth factor receptor (Mus musculus) (UniProt Q01279). As to the kind of experiment: Inhibition of EGFR phosphorylation at Y1068 residue in mouse Ba/F3 EGFR-L858R cells at 0.2 to 10 uM incubated for 6 hrs by Western blot analysis. The format is cell-based. Conditions: dose 0.2-10 µM.
Experiment [19] has as its target Mitogen-activated protein kinase 1 and 3 (ERK2 and ERK1) (Mus musculus) (UniProt P63085+Q63844). As to the kind of experiment: Inhibition of ERK1/2 phosphorylation at T202/Y204 residues in mouse Ba/F3 EGFR-L858R cells at 0.2 to 10 uM incubated for 6 hrs by Western blot analysis. Type of experiment: cell-based. The following applies: dose 0.2-10 µM.
Experiment [20] deals with RAC-alpha serine/threonine-protein kinase (Mus musculus) (UniProt P31750). As to the kind of experiment: Inhibition of AKT phosphorylation at S473 residue in mouse Ba/F3 EGFR-L858R cells at 0.2 to 10 uM incubated for 6 hrs by Western blot analysis. The format is cell-based. Conditions: dose 0.2-10 µM.
Experiment [21] concerns the target T6, Tyrosine-protein kinase Blk (Homo sapiens, UniProt P51451). As to the kind of experiment: Inhibition of BLK (unknown origin) harboring cysteine at alphaD-1 position by LanthaScreen assay.
The target of experiment [22] is T6, Tyrosine-protein kinase Blk. As to the kind of experiment: Displacement of K-4 tracer from wild type BLK in HEK293T cells expressing NanoLuc preincubated for 3 hrs followed by tracer addition and measured after 1 hr by NanoBRET analysis. Type of experiment: cell-based.
Experiment [23] concerns BaF3. As to the kind of experiment: Inhibition of biotinylated osimertinib binding to EGFR L858R mutant in mouse BaF3 cells at 0.2 to 10 uM preincubated for 3 hrs followed by biotinylated osimertinib addition and incubated overnight by competitive pulldown based Western blot analysis. The format is cell-based. The following applies: dose 0.2-10 µM.

T1 sequence (Q06187 whole entry): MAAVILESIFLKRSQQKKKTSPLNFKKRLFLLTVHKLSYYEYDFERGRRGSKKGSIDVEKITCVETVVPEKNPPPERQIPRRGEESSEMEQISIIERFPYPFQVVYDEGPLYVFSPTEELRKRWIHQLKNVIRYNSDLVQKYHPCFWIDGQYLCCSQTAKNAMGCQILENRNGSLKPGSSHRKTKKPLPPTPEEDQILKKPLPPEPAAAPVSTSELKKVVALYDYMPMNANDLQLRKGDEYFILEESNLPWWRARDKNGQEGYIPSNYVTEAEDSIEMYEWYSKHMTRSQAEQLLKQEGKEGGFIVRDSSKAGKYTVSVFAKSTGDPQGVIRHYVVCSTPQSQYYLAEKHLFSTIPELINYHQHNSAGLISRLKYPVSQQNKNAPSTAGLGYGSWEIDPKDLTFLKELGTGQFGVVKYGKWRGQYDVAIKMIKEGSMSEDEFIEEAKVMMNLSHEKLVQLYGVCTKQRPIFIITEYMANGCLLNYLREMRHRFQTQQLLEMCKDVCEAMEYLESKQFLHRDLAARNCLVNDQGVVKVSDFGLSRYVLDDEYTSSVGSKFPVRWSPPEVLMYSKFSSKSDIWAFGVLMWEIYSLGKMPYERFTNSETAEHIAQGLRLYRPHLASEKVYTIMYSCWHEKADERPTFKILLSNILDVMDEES
Sequence of Epidermal growth factor receptor (Mus musculus) (Q01279 whole entry): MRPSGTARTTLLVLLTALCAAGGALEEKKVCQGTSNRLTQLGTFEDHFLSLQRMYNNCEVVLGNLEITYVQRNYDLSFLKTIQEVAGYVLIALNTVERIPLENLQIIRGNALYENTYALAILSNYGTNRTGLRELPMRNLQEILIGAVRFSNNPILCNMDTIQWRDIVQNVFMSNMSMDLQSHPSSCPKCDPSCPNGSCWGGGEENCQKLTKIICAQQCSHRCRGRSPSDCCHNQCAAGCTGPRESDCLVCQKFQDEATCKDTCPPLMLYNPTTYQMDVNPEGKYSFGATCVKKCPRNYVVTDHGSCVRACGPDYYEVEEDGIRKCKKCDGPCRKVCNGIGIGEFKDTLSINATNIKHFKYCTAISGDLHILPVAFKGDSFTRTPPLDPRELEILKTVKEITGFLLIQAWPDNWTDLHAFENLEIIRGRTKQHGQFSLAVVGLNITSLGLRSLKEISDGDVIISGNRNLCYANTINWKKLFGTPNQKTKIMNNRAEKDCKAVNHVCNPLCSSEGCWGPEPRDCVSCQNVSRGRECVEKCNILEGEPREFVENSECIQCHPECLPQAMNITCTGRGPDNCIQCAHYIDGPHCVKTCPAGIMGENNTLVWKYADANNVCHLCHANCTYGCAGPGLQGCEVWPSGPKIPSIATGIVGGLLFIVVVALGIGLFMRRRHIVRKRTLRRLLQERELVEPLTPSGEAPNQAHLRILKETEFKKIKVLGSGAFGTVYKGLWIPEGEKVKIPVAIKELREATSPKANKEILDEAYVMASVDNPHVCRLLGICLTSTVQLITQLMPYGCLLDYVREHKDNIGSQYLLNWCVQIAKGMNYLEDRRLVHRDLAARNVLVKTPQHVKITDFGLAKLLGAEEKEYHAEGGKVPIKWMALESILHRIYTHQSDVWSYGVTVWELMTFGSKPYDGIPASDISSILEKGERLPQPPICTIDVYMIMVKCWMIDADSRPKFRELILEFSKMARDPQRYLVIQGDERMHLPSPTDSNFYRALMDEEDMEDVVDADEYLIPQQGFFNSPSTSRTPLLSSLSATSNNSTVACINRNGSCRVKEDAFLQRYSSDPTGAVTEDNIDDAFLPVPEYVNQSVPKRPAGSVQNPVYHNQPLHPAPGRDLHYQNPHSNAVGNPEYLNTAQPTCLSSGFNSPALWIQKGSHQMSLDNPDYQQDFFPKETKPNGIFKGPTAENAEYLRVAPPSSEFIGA
T6 sequence (P51451 whole entry): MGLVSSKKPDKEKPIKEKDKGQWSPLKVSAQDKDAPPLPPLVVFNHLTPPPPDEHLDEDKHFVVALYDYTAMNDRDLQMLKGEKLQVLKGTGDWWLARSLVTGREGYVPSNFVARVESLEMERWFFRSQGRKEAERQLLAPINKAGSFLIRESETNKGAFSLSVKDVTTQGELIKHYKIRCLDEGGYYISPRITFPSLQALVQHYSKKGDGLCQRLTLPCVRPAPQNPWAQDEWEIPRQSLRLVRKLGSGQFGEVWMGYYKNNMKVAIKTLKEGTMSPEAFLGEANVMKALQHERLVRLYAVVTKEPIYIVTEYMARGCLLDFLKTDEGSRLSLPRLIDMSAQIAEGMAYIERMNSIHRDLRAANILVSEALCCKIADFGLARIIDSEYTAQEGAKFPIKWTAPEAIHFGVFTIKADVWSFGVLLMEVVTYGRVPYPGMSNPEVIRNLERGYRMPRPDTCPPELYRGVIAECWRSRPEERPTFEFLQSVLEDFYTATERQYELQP
Sequence of Mitogen-activated protein kinase 1 and 3 (ERK2 and ERK1) (Mus musculus) (P63085 whole entry, looked up): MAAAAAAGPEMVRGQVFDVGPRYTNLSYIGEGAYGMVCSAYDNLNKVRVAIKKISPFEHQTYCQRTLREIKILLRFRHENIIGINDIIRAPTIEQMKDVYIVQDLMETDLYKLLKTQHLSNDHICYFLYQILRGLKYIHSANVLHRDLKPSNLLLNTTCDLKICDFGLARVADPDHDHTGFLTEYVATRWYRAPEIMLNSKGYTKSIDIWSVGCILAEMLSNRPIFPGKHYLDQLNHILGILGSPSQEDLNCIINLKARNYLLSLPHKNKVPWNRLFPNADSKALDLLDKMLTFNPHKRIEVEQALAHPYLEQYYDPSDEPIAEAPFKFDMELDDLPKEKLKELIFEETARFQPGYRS
Sequence of Mitogen-activated protein kinase 1 and 3 (ERK2 and ERK1) (Mus musculus) (Q63844 whole entry, looked up): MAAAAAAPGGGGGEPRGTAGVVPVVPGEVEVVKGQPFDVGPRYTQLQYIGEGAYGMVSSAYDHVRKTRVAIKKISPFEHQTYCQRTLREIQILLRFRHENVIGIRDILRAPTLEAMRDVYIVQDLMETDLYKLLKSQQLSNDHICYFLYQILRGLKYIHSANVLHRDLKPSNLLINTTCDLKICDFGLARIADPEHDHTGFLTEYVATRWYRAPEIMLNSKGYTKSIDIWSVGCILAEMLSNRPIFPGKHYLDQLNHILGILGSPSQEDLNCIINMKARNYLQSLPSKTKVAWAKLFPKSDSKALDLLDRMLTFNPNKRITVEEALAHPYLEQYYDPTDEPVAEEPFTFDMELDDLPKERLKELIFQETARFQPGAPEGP
Sequence of RAC-alpha serine/threonine-protein kinase (Mus musculus) (P31750 whole entry): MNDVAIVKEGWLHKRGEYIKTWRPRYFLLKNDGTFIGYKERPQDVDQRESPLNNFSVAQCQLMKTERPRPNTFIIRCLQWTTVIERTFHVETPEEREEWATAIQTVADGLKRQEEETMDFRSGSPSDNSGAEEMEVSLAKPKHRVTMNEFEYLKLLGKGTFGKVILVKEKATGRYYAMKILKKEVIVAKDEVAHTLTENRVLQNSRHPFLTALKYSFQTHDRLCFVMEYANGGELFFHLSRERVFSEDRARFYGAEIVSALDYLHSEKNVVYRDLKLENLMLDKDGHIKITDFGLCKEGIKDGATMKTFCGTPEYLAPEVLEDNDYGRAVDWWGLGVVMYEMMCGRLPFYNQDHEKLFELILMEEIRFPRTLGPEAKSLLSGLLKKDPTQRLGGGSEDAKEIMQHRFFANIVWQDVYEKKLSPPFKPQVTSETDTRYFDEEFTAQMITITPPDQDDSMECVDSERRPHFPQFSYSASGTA
Sequence of Tyrosine-protein kinase BTK (Homo sapiens), Q06187 [C481S] (Q06187 whole entry C481S): as the sequence (Q06187 whole entry) above, with C481S counted along it

In the case of `C=CC(=O)N1CCC(Oc2nn(C(C)(C)C)c3ncnc(N)c23)CC1`, the values for the IC50 in “cells” and with BaF3 [1] were 0.604 µM and 3.62 µM, respectively.
As for `C=CC(=O)N1CC(Oc2nn(C(C)(C)C)c3ncnc(N)c23)C1`, the outcome in [2], in experiment [3], in experiment [4], in [5], in experiment [6] and in experiment [7] was Active. The IC50 (in general, the concentration that inhibits the measured activity by half) in experiment [8] was 0.242 µM; in experiment [9], 0.0592 µM; in [10] it was 0.105 µM; in experiment [11], over 10 µM; in experiment [14], 0.865 µM. Moreover, the Activity amounted to 80% in [12] and 60% in [13]. For the same compound, the result (in [15]; with HEK293T) was inactive. The inhibition result in the experiment with BaF3 [16] was “Dose-Dependent Effect”. The inhibition result in experiment [17], in experiment [18], in experiment [19] and in experiment [20] was “Active” throughout.
On to `C=CC(=O)Nc1cc(Nc2nccc(-c3cn(C)c4ccccc34)n2)c(OC)cc1N(C)CCN(C)C` [OSIMERTINIB], for which the figures for the IC50 in “cells” and with BaF3 [1] were 0.0024 µM and 0.019 µM, respectively.
For `CCC(=O)N1CC(Oc2nn(C(C)(C)C)c3ncnc(N)c23)C1`, the IC50 was over 10 µM in [8]; over 10 µM in experiment [9]; over 10 µM in [10]; over 10 µM in experiment [21]; over 30 µM in experiment [22]; over 30 µM in [14]. The inhibition entry (with BaF3 [23]; in experiment [17]; in [18]; in [19]; in experiment [20]) was “inactive” throughout.
For the compound `C=CC(=O)N1CCC(Oc2nn(C(C)(C)C)c3ncnc(N)c23)C1` (centres undefined), the IC50 worked out at 2.41 µM in the experiment “cells” and 5.99 µM with BaF3 [1].
Consider `C=CC(=O)N1CCCC(Oc2nn(C(C)(C)C)c3ncnc(N)c23)C1` (centres undefined), for which the IC50 was 10.6 µM in the experiment “cells” and over 10 µM with BaF3 [1].

Values taken from ChEMBL document CHEMBL5528037 (J Med Chem, 2024).
